Assay results reported in patent US20200102264A1, “MARMELIN ANALOGS AND METHODS OF USE IN CANCER TREATMENT” (THE UNIVERSITY OF KANSAS, priority 2014, published 2020).
pIC50: −log10 of the molar value.

Legend:
Format in all cases: cell-based
[1] = test system: HCT116 colon cancer cells; assay: hexoseaminidase cell proliferation assay, HCT116
From the text: (§1) Using hexoseaminidase assay, we determined the effect of the compounds on cell proliferation. […]
(§2) Using hexoseaminidase assay, we determined the effect of the compounds on cell proliferation. […] […] […] Overall, the analogs can be used as chemotherapeutic agents against colon and pancreatic cancer.

[2] = test system: PanC-1 pancreatic cancer cells; assay: hexoseaminidase cell proliferation assay, PanC-1
Description: (§3) Using hexoseaminidase assay, we determined the effect of the compounds on cell proliferation. […] The IC50 value at 48 hours is below 10 μM in all the cancer cell lines.
(§4) Using hexoseaminidase assay, we determined the effect of the compounds on cell proliferation. […] The MRL16 IC50 value at 48 hours is below 0.3 μM in Colon cancer cell lines. […] Overall, the analogs can be used as chemotherapeutic agents against colon and pancreatic cancer.

SW480 colon cancer cells = assay: hexoseaminidase cell proliferation assay, SW480
From the text: as §1, §2

[3] = test system: MiaPaCa-2 pancreatic cancer cells; assay: hexoseaminidase cell proliferation assay, MiaPaCa-2
Description: as §3, §4

[4] = test system: colon, pancreatic and bladder cancer cells; assay: hexoseaminidase cell proliferation assay, summaries over cell lines; conditions: dose and time dependent
Description: Water solubility studies were performed with the CD/analog complexes. […] The observed IC50 value of THBCD at 48 h is below 10 μM in all the colon, pancreatic and bladder cancer cells.
as §3, §4

HCT116 cells = assay: cell cycle analysis, HCT116; conditions: HCT116, Table 3
SW480 cells = assay: cell cycle analysis, SW480; conditions: SW480, Table 3
Description: The analogs were tested to determine the ability induce death of colon cancer cells.

[5] = Homo sapiens, HCT-116, HCT116, 24 h
[6] = Homo sapiens, HCT-116, HCT116, 48 h
[7] = Homo sapiens, HCT-116, HCT116, 72 h
[8] = Homo sapiens, MIA PaCa-2, MiaPaCa-2, 24 h
[9] = Homo sapiens, MIA PaCa-2, MiaPaCa-2, 48 h
[10] = Homo sapiens, MIA PaCa-2, MiaPaCa-2, 72 h

| Compound | pIC50 ([1]; HCT116, 24 h) | pIC50 ([1]; HCT116, 48 h) | pIC50 ([1]; HCT116, 72 h) | pIC50 ([2]; PanC-1, 24 h) | pIC50 ([2]; PanC-1, 72 h) | pIC50 (SW480 colon cancer cells; SW480, 24 h) | pIC50 (SW480 colon cancer cells; SW480, 48 h) | pIC50 (SW480 colon cancer cells; SW480, 72 h) | pIC50 ([3]; MiaPaCa-2, 24 h) | pIC50 ([3]; MiaPaCa-2, 48 h) | pIC50 ([3]; MiaPaCa-2, 72 h) | pIC50 [1, 5] | pIC50 [1, 6] | pIC50 [1, 7] | pIC50 ([2]; Homo sapiens, PANC-1, 24 h) | pIC50 ([2]; Homo sapiens, PANC-1, 48 h) | pIC50 ([2]; Homo sapiens, PANC-1, 72 h) | pIC50 (SW480 colon cancer cells; Homo sapiens, SW480, 24 h) | pIC50 (SW480 colon cancer cells; Homo sapiens, SW480, 48 h) | pIC50 ([2]; PanC-1, 48 h) | other results |
| --- | --- | --- | --- | --- | --- | --- | --- | --- | --- | --- | --- | --- | --- | --- | --- | --- | --- | --- | --- | --- | --- |
| O=C(N/N=C/c1ccc(F)c(F)c1)c1cc2ccccc2cc1O [MRL DFB] | < 4.30 | 4.60 | 4.66 | < 4.30 | 4.70 | < 4.30 | 4.70 | 4.74 | < 4.30 | 4.60 | 4.77 | – | – | – | – | – | – | – | – | – | – |
| O=C(N/N=C/c1ccc2ccccc2n1)c1cc2ccccc2cc1O [QNL] | – | – | – | – | – | – | – | – | – | – | – | < 4.30 | < 4.30 | 4.70 | < 4.30 | < 4.30 | < 4.30 | < 4.30 | < 4.30 | – | pIC50 (SW480 colon cancer cells; Homo sapiens, SW480, 72 h): < 4.30; pIC50 [3, 8]: < 4.30; pIC50 [3, 9]: < 4.30; pIC50 [3, 10]: 4.60 |
| O=C(N/N=C/c1cc(F)cc(F)c1)c1cc2ccccc2cc1O [MRL RFB] | – | 4.46 | 4.46 | < 4.30 | 4.40 | – | 4.40 | 4.46 | < 4.30 | 4.40 | 4.46 | – | – | – | – | – | – | – | – | 4.40 | – |
| C/C(=N\NC(=O)c1ccccc1O)c1ccc2ccccc2c1O [MRL18] | – | – | – | – | – | – | – | – | – | – | – | < 5.00 | 5.52 | 6.00 | < 5.00 | 5.40 | 5.70 | < 5.00 | 5.30 | – | inhibition of cell proliferation (in words) [4]: potent inhibitor; pIC50 (SW480 colon cancer cells; Homo sapiens, SW480, 72 h): 5.52; pIC50 [3, 8]: < 5.00; pIC50 [3, 9]: < 5.00; pIC50 [3, 10]: 5.00 |
| NNC(=O)c1cc2ccccc2cc1O [MRL BDM] | < 4.30 | < 4.30 | < 4.30 | < 4.30 | < 4.30 | < 4.30 | < 4.30 | < 4.30 | < 4.30 | < 4.30 | < 4.30 | – | – | – | – | – | – | – | – | < 4.30 | – |
| O=C(N/N=C/c1coc2ccccc2c1=O)c1cc2ccccc2cc1O [CMR] | < 4.30 | < 4.30 | < 4.30 | < 4.30 | < 4.30 | < 4.30 | < 4.30 | < 4.30 | < 4.30 | < 4.30 | < 4.30 | – | – | – | – | – | – | – | – | < 4.30 | – |
| O=C(N/N=C/c1ccc(O)cc1)c1cc2ccccc2cc1O [MRL MHB] | < 4.30 | < 4.30 | < 4.30 | < 4.30 | < 4.30 | < 4.30 | < 4.30 | < 4.30 | < 4.30 | < 4.30 | < 4.30 | – | – | – | – | – | – | – | – | < 4.30 | – |
| C/C(=N\NC(=O)c1ccco1)c1ccc2ccccc2c1O [MRL21] | 5.00 | 5.42 | 5.52 | < 5.00 | 5.52 | < 5.00 | 5.30 | 5.52 | < 5.00 | 5.30 | 5.30 | – | – | – | – | – | – | – | – | 5.30 | inhibition of cell proliferation (in words) [4]: potent inhibitor |
| OC[C@H]1O[C@@H]2O[C@H]3[C@H](O)[C@@H](O)[C@@H](O[C@H]4[C@H](O)[C@@H](O)[C@@H](O[C@H]5[C@H](O)[C@@H](O)[C@@H](O[C@H]6[C@H](O)[C@@H](O)[C@@H](O[C@H]7[C@H](O)[C@@H](O)[C@@H](O[C@H]8[C@H](O)[C@@H](O)[C@@H](O[C@H]1[C@H](O)[C@H]2O)O[C@@H]8CO)O[C@@H]7CO)O[C@@H]6CO)O[C@@H]5CO)O[C@@H]4CO)O[C@@H]3CO [CD, β-cyclodextrin] | – | – | – | – | – | – | – | – | – | – | – | < 4.30 | < 4.30 | < 4.30 | < 4.30 | < 4.30 | < 4.30 | < 4.30 | < 4.30 | – | G0/G1 (%) (HCT116 cells): 43.9%; G2M (%) (HCT116 cells): 10.9%; S (%) (HCT116 cells): 12.3%; SubG0 Dead Cells (%) (HCT116 cells): 31.0%; pIC50 (SW480 colon cancer cells; Homo sapiens, SW480, 72 h): < 4.30; G0/G1 (%) (SW480 cells): 61.1%; G2M (%) (SW480 cells): 19.8%; S (%) (SW480 cells): 14.9%; SubG0 Dead Cells (%) (SW480 cells): 3.6%; pIC50 [3, 8]: < 4.30; pIC50 [3, 9]: < 4.30; pIC50 [3, 10]: < 4.30 |
